Results on four molecules are retold here after patent US12036312B2, “Non-aqueous topical compositions comprising a halogenated salicylanilide” (priority 2016, dated 2024).

≈ marks a conversion by molar mass, not a printed value. Where “and” joins values, the source holds several entries; their conditions need not be identical. Identical values can stand only once.

The test system of data set [1] is MRSA 01, MRSA 15 (fusidic acid-resistant), MRSA 16 (mupirocin-resistant). Description: Mutational frequency evaluation (spontaneous single-step mutations), Example 1. In kind it is cell-based, Staphylococcus aureus. To be noted: at MIC×1 (Example 1).
The conditions of data set [2]: published literature values; cited from earlier work.
For data set [3], the system named is S. aureus. Description: Minimum inhibitory concentration (MIC) assay, Example 1, S. aureus strains. The format is cell-based. To be noted: Staphylococcus aureus, MRSA, read-out: Mic100 S. aureus. From the text:
The methicillin-resistant S. aureus (MRSA) 01 strain was used as the primary test microorganism as a representative bacteria commonly found in skin infections. This strain is a community-acquired MRSA clinical isolate of USA 300 type, from a skin abscess.
(§1) Twenty-one other MRSA and methicillin-sensitive S. aureus strains, and 4 Streptococcus pyogenes strains, were also included in the study (Table 2). These covered fusidic acid- and mupirocin-resistant strains, these two types of resistance being of clinical relevance.
(§2) Strains were conserved in Luria Bertani (LB) Broth (S. aureus) or Brain Heart Infusion (BHI) (S. pyogenes) supplemented with glycerol 15% (v/v) at −80° C., and reactivated by isolation on LB (S. aureus) or BHI (S. pyogenes) agar plates. Strains were cultivated in Mueller Hinton (MH) Broth-cation adjusted (S. aureus) supplemented with lysed horse blood 2.5% (v/v) (S. pyogenes). All strains were cultivated at 37° C., aerobically for S. aureus strains.
(§3) Bacterial cultures were stopped in their exponential growth phase and plates were inoculated with the approximate concentration of 10^3 cells per well. Plates were incubated at 37° C. for 18 hours (S. aureus) or 24 hours (S. pyogenes). Optical density at a wavelength of 600 nm was measured at the end of the incubation time. […] Experiments were performed at least as triplicate biological replicates with all strains.

For the next data set, the system named is S. pyogenes. Description: Minimum inhibitory concentration (MIC) assay, Example 1, S. pyogenes strains. The format is cell-based. To be noted: Streptococcus pyogenes, read-out: Mic100 S. pyogenes. On the procedure: as §1, §2, §3
The subject of data set [4] is S. aureus. Nature of the data set: MIC assay according to CLSI criteria, Example 2, S. aureus strains. To be noted: Staphylococcus aureus, read-out: MIC. The format is cell-based, Staphylococcus aureus. The text has this: Chosen for its relevance regarding bacterial skin infections, the methicillin-resistant S. aureus (MRSA) 01 strain was used as the primary test microorganism. This strain is a community-acquired MRSA clinical isolate of USA 300 type, from a skin abscess.
Two-hundred-four other MRSA and methicillin-sensitive S. aureus strains, and 4 Streptococcus pyogenes strains, were also included in the study. These covered fusidic acid- and mupirocin-resistant strains, these two types of resistance being of clinical relevance.
Strains were conserved in Luria Bertani (LB) Broth (S. aureus) or Brain Heart Infusion (BHI) (S. pyogenes) supplemented with glycerol 15% (v/v) at −80° C., and reactivated by isolation on LB (S. aureus) or BHI (S. pyogenes) agar plates. Strains were cultivated in Mueller Hinton (MH) Broth-cation adjusted (S. aureus) or BHI (S. pyogenes). All strains were cultivated aerobically (microaerobically for S. pyogenes strains) at 37° C.
Bacterial cultures were stopped in their exponential growth phase and plates were inoculated with the approximate concentration of 5×10^5 cells per well. Plates were incubated at 37° C. for 18 hours (S. aureus) or 24 hours (S. pyogenes). Optical density at a wavelength of 600 nm was measured at the end of the incubation time.

Take `Cc1cc(C(C#N)c2ccc(Cl)cc2)c(Cl)cc1NC(=O)c1cc(I)cc(I)c1O` (stereo not drawn) [Closantel, closantel]: the mutational frequency in data set [1] is reported as 2×10^−8.
Turning to `O=C(Nc1cc(Cl)cc(Cl)c1O)c1c(O)c(Cl)cc(Cl)c1Cl` [Oxyclozanide, oxyclozanide], the LD50 rats p.o in data set [2] is 980 to 3500 mg/kg.
As to `O=C(Nc1ccc(Oc2ccc(Cl)cc2)c(Cl)c1)c1cc(I)cc(I)c1O` [Rafoxanide, rafoxanide], the MIC with S. aureus [3] is 0.8 µg/mL and 1.25 µM; in the data set with S. pyogenes, 6.4 µg/mL and 10 µM. The mutational frequency in data set [1] is 5×10^−9.
Regarding `C/C(=C\C(=O)OCCCCCCCCC(=O)O)C[C@@H]1OC[C@H](C[C@@H]2O[C@H]2[C@@H](C)[C@H](C)O)[C@@H](O)[C@H]1O` [Mupirocin, mupirocin], the MIC stood at 0.25 µg/mL (≈ 0.499 µM) in the data set with S. aureus [4] (MRSA, strain MRSA 01); 0.25 µg/mL (≈ 0.499 µM) with S. aureus [4] (MRSA, strain MRSA 02); 0.25 µg/mL (≈ 0.499 µM) with S. aureus [4] (MRSA, strain MRSA 03); 0.25 µg/mL (≈ 0.499 µM) in the data set on S. aureus [4] (MRSA, strain MRSA 04); 0.125 µg/mL (≈ 0.25 µM) in the data set on S. aureus [4] (MRSA, strain MRSA 05); 0.25 µg/mL (≈ 0.499 µM) in the data set on S. aureus [4] (MRSA, strain MRSA 06). The MIC in the data set on S. aureus [4] (MRSA, strain MRSA 07) was 0.25 µg/mL (≈ 0.499 µM); in the data set with S. aureus [4] (MRSA, strain MRSA 09), 0.25 µg/mL (≈ 0.499 µM); with S. aureus [4] (MRSA, strain MRSA 10), 0.25 µg/mL (≈ 0.499 µM); with S. aureus [4] (MRSA, strain MRSA 11), 0.5 µg/mL (≈ 0.999 µM); with S. aureus [4] (MRSA, strain MRSA 12), 0.125 µg/mL (≈ 0.25 µM); in the data set with S. aureus [4] (MRSA, strain MRSA 13), 0.25 µg/mL (≈ 0.499 µM). For the same molecule, the MIC in the data set with S. aureus [4] (MRSA, strain MRSA 14) came out at 0.125 µg/mL (≈ 0.25 µM); with S. aureus [4] (MRSA, strain MRSA 15) it was 0.25 µg/mL (≈ 0.499 µM); in the data set with S. aureus [4] (MRSA, strain MRSA 18), 0.125 µg/mL (≈ 0.25 µM); in the data set with S. aureus [4] (MRSA, strain MRSA 19) it was 0.25 µg/mL (≈ 0.499 µM); with S. aureus [4] (MRSA, strain MRSA 20) it was 0.25 µg/mL (≈ 0.499 µM); in the data set with S. aureus [4] (MRSA, strain MRSA 22), 0.25 µg/mL (≈ 0.499 µM). In addition, the MIC with S. aureus [4] (MRSA, strain MRSA 23) was determined as 0.25 µg/mL (≈ 0.499 µM); in the data set with S. aureus [4] (MRSA, strain MRSA 24), 0.25 µg/mL (≈ 0.499 µM); in the data set with S. aureus [4] (MRSA, strain MRSA 25) it was 0.25 µg/mL (≈ 0.499 µM); in the data set with S. aureus [4] (MRSA, strain MRSA 26) it was 0.5 µg/mL (≈ 0.999 µM); with S. aureus [4] (MRSA, strain MRSA 27), 0.25 µg/mL (≈ 0.499 µM); in the data set with S. aureus [4] (MRSA, strain MRSA 28), 0.5 µg/mL (≈ 0.999 µM). Further, the MIC in the data set with S. aureus [4] (MRSA, strain MRSA 29) came out at 0.25 µg/mL (≈ 0.499 µM); in the data set with S. aureus [4] (MRSA, strain MRSA 31), 0.25 µg/mL (≈ 0.499 µM); with S. aureus [4] (MRSA, strain MRSA 32) it was 0.25 µg/mL (≈ 0.499 µM); in the data set with S. aureus [4] (MRSA, strain MRSA 33), 0.25 µg/mL (≈ 0.499 µM); in the data set with S. aureus [4] (MRSA, strain MRSA 34), 0.25 µg/mL (≈ 0.499 µM); in the data set with S. aureus [4] (MRSA, strain MRSA 35), 0.5 µg/mL (≈ 0.999 µM). In addition, the MIC turned out to be 0.25 µg/mL (≈ 0.499 µM) in the data set with S. aureus [4] (MRSA, strain MRSA 36); 0.25 µg/mL (≈ 0.499 µM) in the data set with S. aureus [4] (MRSA, strain MRSA 37); 0.25 µg/mL (≈ 0.499 µM) in the data set on S. aureus [4] (MRSA, strain MRSA 39); 0.25 µg/mL (≈ 0.499 µM) in the data set on S. aureus [4] (MRSA, strain MRSA 40); 0.5 µg/mL (≈ 0.999 µM) in the data set with S. aureus [4] (MRSA, strain MRSA 75); 0.25 µg/mL (≈ 0.499 µM) in the data set with S. aureus [4] (MRSA, strain MRSA 85). Further, the MIC amounted to 0.25 µg/mL (≈ 0.499 µM) in the data set with S. aureus [4] (MRSA, strain MRSA 86); 0.25 µg/mL (≈ 0.499 µM) with S. aureus [4] (MRSA, strain MRSA 87); 0.25 µg/mL (≈ 0.499 µM) with S. aureus [4] (MRSA, strain MRSA 88); 0.25 µg/mL (≈ 0.499 µM) in the data set with S. aureus [4] (MRSA, strain MRSA 89); 0.25 µg/mL (≈ 0.499 µM) in the data set on S. aureus [4] (MRSA, strain MRSA 90); 0.25 µg/mL (≈ 0.499 µM) with S. aureus [4] (MRSA, strain MRSA 91). In addition, the MIC in the data set with S. aureus [4] (MRSA, strain MRSA 92) is 0.25 µg/mL (≈ 0.499 µM); in the data set on S. aureus [4] (MRSA, strain MRSA 93) it was 0.25 µg/mL (≈ 0.499 µM); in the data set on S. aureus [4] (MRSA, strain MRSA 94) it was 0.25 µg/mL (≈ 0.499 µM); with S. aureus [4] (MRSA, strain MRSA 95) it was 0.25 µg/mL (≈ 0.499 µM); in the data set on S. aureus [4] (MRSA, strain MRSA 96) it was 0.125 µg/mL (≈ 0.25 µM); in the data set with S. aureus [4] (MRSA, strain MRSA 97), 0.25 µg/mL (≈ 0.499 µM). Further, the MIC with S. aureus [4] (MRSA, strain MRSA 98) is 0.5 µg/mL (≈ 0.999 µM); with S. aureus [4] (MRSA, strain MRSA 99), 0.5 µg/mL (≈ 0.999 µM); in the data set with S. aureus [4] (MRSA, strain MRSA 100) it was 0.5 µg/mL (≈ 0.999 µM); with S. aureus [4] (MRSA, strain MRSA 101), 0.25 µg/mL (≈ 0.499 µM); with S. aureus [4] (MRSA, strain MRSA 102), 0.25 µg/mL (≈ 0.499 µM); in the data set on S. aureus [4] (MRSA, strain MRSA 103), 0.25 µg/mL (≈ 0.499 µM). Besides, the MIC in the data set with S. aureus [4] (MRSA, strain MRSA 104) was 0.25 µg/mL (≈ 0.499 µM); in the data set on S. aureus [4] (MRSA, strain MRSA 105), 0.25 µg/mL (≈ 0.499 µM); in the data set on S. aureus [4] (MRSA, strain MRSA 106), 0.25 µg/mL (≈ 0.499 µM); in the data set on S. aureus [4] (MRSA, strain MRSA 107) it was 0.25 µg/mL (≈ 0.499 µM); in the data set on S. aureus [4] (MRSA, strain MRSA 108) it was 0.25 µg/mL (≈ 0.499 µM); in the data set with S. aureus [4] (MRSA, strain MRSA 109), 0.25 µg/mL (≈ 0.499 µM). Further, the MIC worked out at 0.125 µg/mL (≈ 0.25 µM) in the data set with S. aureus [4] (MRSA, strain MRSA 110); 0.25 µg/mL (≈ 0.499 µM) in the data set on S. aureus [4] (MRSA, strain MRSA 111); 0.25 µg/mL (≈ 0.499 µM) in the data set with S. aureus [4] (MRSA, strain MRSA 112); 0.25 µg/mL (≈ 0.499 µM) with S. aureus [4] (MRSA, strain MRSA 113); 0.125 µg/mL (≈ 0.25 µM) in the data set with S. aureus [4] (MSSA, strain MSSA 01); 0.125 µg/mL (≈ 0.25 µM) with S. aureus [4] (MSSA, strain MSSA 02). Besides, the MIC with S. aureus [4] (NEWMAN, strain Newman) was found to be 0.25 µg/mL (≈ 0.499 µM).
